The values that follow are results of earlier work, collected in patent US7718380B2 (Abbott Laboratories, priority 2005, dated 2010).

Molecules are shown by their SMILES.

`C=CC[C@@H]1/C=C(\C)C[C@H](C)C[C@H](OC)[C@H]2O[C@@](O)(C(=O)C(=O)N3CCCC[C@H]3C(=O)O[C@H](/C(C)=C/[C@@H]3CC[C@@H](O)[C@H](OC)C3)[C@H](C)[C@@H](O)CC1=O)[C@H](C)C[C@@H]2OC` [Tacrolimus]: the “solubility in aqueous solutions” value was “limited solubility”.
